Columns and labels:
Format in all cases: functional
Set-up in all cases: concentration or dose not given beside the values
Plasmodium berghei = test: MMV: P. berghei-infected blood was withdrawn from mice by cardiac pucture before being immediately added to ookinete culture medium containing test compounds. 26 hr later, GFP-positive ookinetes were identified and counted by automated microscopy. All compounds were tested in 4 independent experiments and data presented here is the mean.
Plasmodium falciparum [1] = test: (§1) MMV: P. falciparum NF54 functionally mature Stage V gametocytes were incubated for 24 hr in the presence of the test compounds. Gamete formation was then triggered by addition of 2uM xantheurenic acid and temperature decrease to ~20C. Male gamete exflagellation was recorded and analysed by automated microscopy after 20 min. All compounds were tested in 4 independent experiments and data presented here is the mean.
Plasmodium falciparum [2] = test: as §1, with “Female” for “Male”, “formation” for “exflagellation”, “24 hr later” for “and analysed”, “detection of surface labelling of female gametes with a Cy3-conjugated antibody reactive to Pfs25.” for “after 20 min.”; settings: NF54, 24 h

Row | Compound | inhibition (Plasmodium berghei) | inhibition (Plasmodium falciparum [1]) | inhibition (Plasmodium falciparum [2])
1 | COc1ccc2nc(C)cc(Nc3ccccc3O)c2c1 | -6.855% | -8.38% | -42%
2 | CN1CCN(c2ncnc3c2[nH]c2ccc(Cl)cc23)CC1 | -3.248% | -2.21% | 6.75%
3 | CC(C)CNC(=O)c1c(N)n(CCc2ccccc2F)c2nc3ccccc3nc12 | -6.274% | 24.1% | -24.2%
4 | Cc1cccc(-n2ncc3c(O)nc(-n4nc(C)cc4NC(=O)c4cc5ccccc5o4)nc32)c1 | -5.778% | 34.4% | -18.6%
5 | Cc1cc(Nc2ccc3ccccc3c2)n2ncnc2n1 | -3.995% | -4.18% | -8.79%
6 | Oc1ccccc1CN1CCC2(CCCN(Cc3ccccc3F)C2)C1 (configuration not stated) | -6.641% | 22.9% | -21.4%
7 | COc1ccc(-c2nc(NC(=O)CS(=O)(=O)c3ccc(F)cc3)sc2C)cc1 | -6.755% | -20.9% | 7.25%
8 | COCCNCC(O)Cn1c2ccc(Cl)cc2c2cc(Cl)ccc21 (configuration not stated) | -6.812% | -2.59% | -7.62%
9 | COc1ccc(N2CCN(C(CNC(=O)C3CCCCC3)c3ccc4c(c3)OCO4)CC2)cc1 (configuration not stated) | -5.593% | 29.7% | -22.9%
10 | COc1ccc2nc(C)cc(Nc3cccc(O)c3)c2c1.Cl | -5.92% | -12.1% | -5.48%
11 | COC(=O)c1ccc(C2C3=C(O)CC(c4ccc(F)cc4)CC3=Nc3ccccc3N2C(=O)c2ccccc2)cc1 (configuration not stated) | -3.179% | -76.8% | -31.4%
12 | COc1cccc(NC(=O)Cn2c(C)c(C#N)c3ccccc32)c1 | -1.894% | 21.9% | -23.6%
13 | Oc1ccc(-c2nc(-c3ccc4oc5ccc(-c6[nH]c(-c7ccc(O)cc7)nc6-c6ccccc6)cc5c4c3)c(-c3ccccc3)[nH]2)cc1 | -6.694% | 3.81% | -4.38%
14 | O=C(NC1CCCCC1)C(c1cccs1)N(CCc1ccccc1)C(=O)c1ccco1 (configuration not stated) | -4.107% | 6.52% | -15.1%
15 | COCCNC(=O)c1ccc(OC2CCN(Cc3ccc(F)c(F)c3)CC2)c(Cl)c1 | -5.71% | 16.4% | -14.3%
16 | CCC(=O)Nc1nnc(Cc2ccc(OC)c(OC)c2)s1 | -4.332% | 19.9% | -4.58%
17 | Brc1ccc(Nc2nc3ccccc3nc2Nc2ccc(Br)cc2)cc1 | -6.195% | 18.1% | -0.532%
18 | Cc1cc(Nc2ccc(C)c(Cl)c2)n2nc(C(F)(F)F)nc2n1 | -5.541% | 17.1% | -44.8%
19 | O=C(NCCCN1CCC(N2CCCCC2)CC1)C1=Cc2cc(Br)ccc2OC1 | -4.183% | 8.14% | 15%
20 | CCN1CCN(c2cc(C)c3cc(NC(=O)c4ccc(OC)c(OC)c4)ccc3n2)CC1 | -2.902% | -3.72% | -8.68%
21 | CCCCOC(=O)c1ccc(Nc2cc(C)nc3ccc(OC)cc23)cc1 | -4.495% | -6.31% | -6.56%
22 | CC(NCc1ccccc1)c1cc(Cl)ccc1O (configuration not stated) | -6.231% | -5.35% | -17.3%

Row | Compound | inhibition (Plasmodium berghei) | inhibition (Plasmodium falciparum [1]) | inhibition (Plasmodium falciparum [2])
23 | Cc1cc(Nc2ccc(OCc3ccccc3)cc2)nc2cc(O)ccc12 | -6.891% | 32.7% | 6.66%
24 | COc1cc(-c2nc(-c3ccc(Sc4ccccc4)cc3)c(-c3ccccc3)[nH]2)cc(OC)c1O | -6.549% | 13.5% | -13.7%
25 | Oc1ccc(Cl)cc1CNc1nc2ccccc2[nH]1 | -5.247% | 53.3% | -26.8%
26 | O=C(c1ccccc1F)N(Cc1ccc(Cl)cc1)c1ccccn1 | -2.284% | 20.3% | -28.6%
27 | COc1ccc(C(=O)Nc2ccc(Cl)cc2C(=O)Nc2ccncc2)cc1 | -4.155% | 14.4% | -19.7%
28 | O=C(Nc1ccc(CN2CCOCC2)cc1)c1ccc(-c2ccc(Br)cc2)o1 | -6.99% | 14.4% | -17.9%
29 | CCOc1ccc(-n2cc(-c3ccccc3)c3c(SCc4cc(C)ccc4C)ncnc32)cc1 | -4.1% | 13% | -11.5%
30 | Cc1ccc(C)c(Cn2c(N3CCC(C(=O)NCc4cccs4)CC3)nc3ccccc32)c1 | -3.865% | -124% | 9.01%
31 | Cc1ccccc1OCCSc1nc2ccc(NC(=O)c3cccs3)cc2s1 | -6.357% | 11.6% | -2.71%
32 | CN(C)c1ccc(-c2nc3cc(N)ccc3[nH]2)cc1 | -2.982% | 12.2% | -7.9%
33 | CCOC(=O)c1cnc2ccc(Cl)cc2c1NCCCN(C)C | -2.955% | -9.15% | -11.1%
34 | c1ccc2c(NCCc3c[nH]c4ccccc34)c3ccccc3nc2c1 | -6.399% | 5.59% | 2.57%
35 | O=C(Nc1ccc(C23CC4CC(CC(c5ccccc5)(C4)C2)C3)cc1)c1cccs1 | -2.527% | 18.1% | -23.5%
36 | Oc1c(C(Nc2ccccn2)c2cccc(Oc3ccccc3)c2)ccc2cccnc12 (configuration not stated) | -4.794% | -38.1% | -17.6%
37 | Cc1ccc(Nc2nc(N)c3ccccc3n2)cc1Cl | -5.317% | -51.8% | -26.1%
38 | Cc1ccc(CN2CCC(C(=O)Nc3ccc(-c4cc5ccccc5[nH]4)cc3)CC2)o1 | -4.815% | 7.05% | -19.7%
39 | CCn1c(SCC(=O)Nc2cc(C(F)(F)F)ccc2Cl)nc2ccccc2c1=O | -2.806% | 22.5% | -19.5%
40 | Cc1ccc2nc(C)cc(Nc3cccc(C(F)(F)F)c3)c2c1.Cl | -4.574% | -27.5% | -16.2%
41 | O=C(Nc1cccc(C(F)(F)F)c1)c1cc(Cl)ccc1O | -2.67% | 24.9% | -6.94%
42 | CC(C)c1ccc(CNCC(O)c2ccccc2)cc1.Cl (configuration not stated) | -4.617% | 4.92% | -2.85%
43 | CC1CC(C)CN(C(=O)c2ccc(Cl)cc2Cl)C1 (configuration not stated) | -6.319% | 30.8% | -18.2%
44 | CCOc1ccc(-c2nonc2NC(=O)c2cccc(C)c2)cc1OCC | -6.946% | 52.4% | -7.75%

Row | Compound | inhibition (Plasmodium berghei) | inhibition (Plasmodium falciparum [1]) | inhibition (Plasmodium falciparum [2])
45 | COc1ccc(N2CCN(C(CNC(=O)CC(C)(C)C)c3ccc4c(c3)OCO4)CC2)cc1 (configuration not stated) | -5.344% | 1.8% | -24.8%
46 | COc1ccc(C2N(C)c3ccccc3N2C)cc1 | -4.492% | 10.4% | 24.3%
47 | CCOc1ccc(/C=C/c2nc(=O)c3ccccc3o2)cc1 | -4.823% | 23.7% | -30.2%
48 | O=C(Nc1ccccc1O)c1ccc(-c2ccc(Cl)cc2Cl)o1 | -6.243% | 18.9% | -20.6%
49 | CCOC(=O)C1(Cc2ccccc2)CCN(Cc2cccc(OC)c2O)CC1 | -6.801% | -10.2% | -9.84%
50 | CCCCc1ccc(NS(=O)(=O)c2cc3c4c(c2)CCN4C(=O)CC3)cc1 | -6.551% | 15.5% | -27.1%
51 | CCCOCc1cc(CN2CCN(c3cccc(Cl)c3)CC2)c(O)c2ncccc12 | -5.698% | 19% | 14.3%
52 | O=C(Cc1ccccc1)NC(c1ccc(Cl)cc1)c1c(O)ccc2ccccc12 (configuration not stated) | -6.482% | 54.1% | 10.7%
53 | CCOc1ccc(-c2nc(NC(=O)c3cccc(S(C)(=O)=O)c3)sc2C)cc1 | -6.261% | 0.81% | -21%
54 | COc1ccc(-c2nc3cc(Cc4ccc5[nH]c(-c6ccc(OC)cc6)nc5c4)ccc3[nH]2)cc1 | -5.308% | 28.3% | -12.5%
55 | c1ccc(CNc2nc(Nc3ccccc3)nc3ccccc23)cc1 | -4.491% | -50.6% | -29.2%
56 | Cc1cccc(N2C(=O)C3C(C2=O)C2(c4ccccc4)C(=O)C3(c3ccccc3)C(c3ccc4c(c3)OCO4)=C2c2ccc3c(c2)OCO3)c1 (configuration not stated) | -6.32% | 32.3% | -2.01%
57 | CC1=C(CC(=O)c2cccc([N+](=O)[O-])c2)C(=O)c2ccccc2C1=O | -6.724% | -2.58% | -17.4%
58 | COc1cc(OC)cc(N2C(=O)N(Cc3ccc(C(C)(C)C)cc3)c3ccccc3S2(=O)=O)c1 | -1.934% | 8.32% | -7.89%
59 | Cc1cc(N2CCN(C3CCCC3)CC2)n2c(nc3ccccc32)c1C#N | -5.169% | 6.61% | -12.2%
60 | CCN(CC)CCCNc1nc(-c2ccc(Cl)cc2)nc2ccccc12 | -4.546% | -49.2% | -19.2%
61 | CCOC(=O)c1cnc2ccc(OC)cc2c1NCc1ccccc1 | -6.823% | -12.8% | -40.9%
62 | CCN1CCN(c2c(C(=O)c3ccccc3)cnc3cc(OC)c(OC)cc23)CC1 | -4.456% | -41.4% | -6.16%
63 | C=C(C)CCC(C)N1CCC(N2CCC(C(=O)NCCc3ccccc3)CC2)CC1 (configuration not stated) | -5.335% | 9.7% | -6.85%
64 | CCCCc1c(CCC)c(=N)c2ccccc2n1C.I | -7.021% | -57% | -25.6%
